Reference: patent publication US10258613B2, “Compositions for treating retinal degeneration and methods of production and use thereof” (The Board of Regents of the University of Oklahoma, priority 2014, dated 2019)
Entries after “also recorded” stand apart in the source; their conditions may differ.

Key:
[1] = tested on: cones in Rpe65−/− mice; test: Cone density after intravitreal injection of TR antagonists; type: in vivo, mouse; conditions: for cone death, in words: intravitreal delivery; for cone density increase: intravitreal injection at P5 (1.0 μl of 5 mM NH-3 or 10 mM 1-850), collected P24; for cone protection, in words: intravitreal injection at P5, P24, PNA staining
Procedure: (§1) The cornea and lens were then removed, and the eyes were fixed in 4% PFA in PBS (vol/vol) at room temperature for another 4-6 hours. […] Paraffin sections (5 μm thickness) passing vertically through the retina (along the vertical meridian passing through the optic nerve head) were prepared using a Leica microtome.
Briefly, retinal whole mounts or sections were blocked in Hank's balanced salt solution containing 5% bovine serum albumin (BSA) and 0.5% Triton-X 100 for 1 hour at room temperature. Primary antibody incubation (anti-M-opsin, 1:500; anti-S-opsin, 1:500; anti-CAR, 1:500; and anti-GNAT2, 1:500) was performed at room temperature for 1 hour. […] PNA immunohistochemistry was performed using biotinylated PNA (1:50) and streptavidin-FITC (1:200). […] For retinal whole mounts, images were taken using a 40× objective on an Olympus microscope, approximately 1.0 mm from the optic nerve in the center of each quadrant (FIG. 1). […] Cone density on retinal cross section was evaluated by counting the number of cones present in the dorsal and ventral areas. The averages of the counts were analyzed and graphed using GraphPad Prism software (GraphPad Software, San Diego, Calif.).
(§2) The cone precursor Weri RB-1 cell line was used to determine the antagonistic activity of the TR antagonists, NH-3 and 1-850. Expression levels of M-opsin and S-opsin in Weri cells following T3 treatment in the presence and absence of TR antagonists were analyzed by quantitative RT-PCR. […] NH-3, 1-850, or vehicle was delivered to the eye by intravitreal injection at postnatal day 5 (P5), and retinas and eyes were collected on P24. Cone survival was evaluated by examining cone density on retinal whole mounts and retinal sections by immunohistochemical approaches.

[2] = tested on: Weri RB-1 cell line; test: M-opsin and S-opsin expression (quantitative RT-PCR) after T3 with or without TR antagonists; type: cell-based; conditions: Weri cells; for inhibition of T3-induced M-opsin expression / inhibition of the effects of T3 treatment on M-opsin and S-opsin expression: dose-dependent pattern
Procedure: as §2

[3] = tested on: rod photoreceptors in Cngb3−/− mice; test: Retinal morphometric analysis (ONL nuclei count, ONL thickness) after T3 treatment; type: in vivo, mouse
Procedure: (§3) For anti-thyroid treatment, mother Rpe65^−/− and cpfl1 mice were treated with methimazole (MMI) (Sigma-Aldrich, St. Louis, Mo., 0.05% wt/vol) and sodium perchlorate monohydrate (PM) (Sigma-Aldrich, 1.0% wt/vol) in drinking water, beginning on the day they delivered pups and the treatment (for both mother and pups) continued for 30 days. In a separate experiment, post-weaning cpfl1 mice received MMI and PM treatment for 30 days, beginning on P25. For T3 treatment, Cngb3^−/− and Gucy2e^−/− mice received T3 (Sigma-Aldrich, 0.1 μg/g body weight, subcutaneous injection once each day) or vehicle (saline) for 30 days, beginning on P1. At the end of the treatments, blood samples were collected for measurements of serum T3 levels, and eyes and retinas were collected for evaluating cone density and cone specific protein/mRNA expression. For T3-treated mice, blood samples were collected around 24 hours after the last injection.
as §1, with “Mouse retinal whole mounts or cross sections were prepared for immunohistochemical analysis as described previously (Ding et al., 2009; and Xu et al., 2011). […] The” for “The”
(§4) Retina cross sections labeled with DAPI (Vector Laboratory Inc., Burlingame, Calif.) were used for morphometric analysis to evaluate outer nuclear layer (ONL) integrity/rod survival as described previously (Xu et al., 2012). In each hemisphere, the number of nuclei in the ONL and the thickness of the ONL were measured at 0.24 mm intervals in nine defined areas, starting at the optic nerve head and extending along the vertical meridian toward the dorsal and ventral ora serrata. The mean number of nuclei and ONL thickness at the dorsal and ventral locations was then calculated. In each experimental group, two-three sections from each of the retinas of three-four mice were measured. The averages of the measurements in each location were plotted, and the measurements in each hemisphere were analyzed and graphed using GraphPad Prism software (GraphPad Software, San Diego, Calif.).

[4] = tested on: rod photoreceptors in Gucy2e−/− mice; test: as above; type: in vivo, mouse
Procedure: as §3
as §1, with “Mouse retinal whole mounts or cross sections were prepared for immunohistochemical analysis as described previously (Ding et al., 2009; and Xu et al., 2011). […] The” for “The”
as §4

[5] = tested on: cones; conditions: mice; effect reversed by deletion of TRβ2 gene; cited from earlier work
[6] = tested on: cones in Gucy2e−/− mice; test: Cone density by immunofluorescence labeling after T3 treatment; type: in vivo, mouse
Procedure: as §3
as §1, with “Mouse retinal whole mounts or cross sections were prepared for immunohistochemical analysis as described previously (Ding et al., 2009; and Xu et al., 2011). […] The” for “The”
(§5) Immunohistochemical labeling of cones using antibodies against peanut agglutinin (PNA), cone opsin, cone arrestin (CAR), and guanine nucleotide-binding protein G(t) subunit alpha-2 (GNAT2) was performed as described previously (Ding et al., 2009). Briefly, retinal whole mounts or sections were blocked in Hank's balanced salt solution containing 5% bovine serum albumin (BSA) and 0.5% Triton-X 100 for 1 hour at room temperature. Primary antibody incubation (anti-M-opsin, 1:500; anti-S-opsin, 1:500; anti-CAR, 1:500; and anti-GNAT2, 1:500) was performed at room temperature for 1 hour. Following ALEXA FLUOR®-488 or -568 (Molecular Probes, Inc., Eugene, Oreg.) or FITC-conjugated secondary antibody incubation and rinses, slides were mounted and cover-slipped. PNA immunohistochemistry was performed using biotinylated PNA (1:50) and streptavidin-FITC (1:200). Fluorescent signals were imaged using an Olympus AX70 fluorescence microscope (Olympus Corp., Center Valley, Pa.) with QCapture imaging software (QImaging Corp., Surrey, BC, Canada) or an Olympus IX81-FV500 confocal laser scanning microscope (Olympus, Melville, N.Y.) (using excitation wavelengths of 543 nm for ALEXA FLUOR®-568 and 488 nm for FITC) and FLUOVIEW® imaging software (Olympus, Melville, N.Y.). Evaluation of cone density on retinal whole mounts and retinal cross-sections was performed as described previously (Xu et al., 2011; and Komeima et al., 2006). For retinal whole mounts, images were taken using a 40× objective on an Olympus microscope, approximately 1.0 mm from the optic nerve in the center of each quadrant (FIG. 1). Image scale was calibrated and cones were counted in four regions, each with dimensions of 317 μm×317 μm, using ImageJ software (ImageJ software website from National Institutes of Health, Bethesda, Md.). Cone density on retinal cross section was evaluated by counting the number of cones present in the dorsal and ventral areas. The averages of the counts were analyzed and graphed using GraphPad Prism software (GraphPad Software, San Diego, Calif.).

[7] = tested on: cones in Cngb3−/− mice; test: as above; type: in vivo, mouse
Procedure: as §3
as §1, with “Mouse retinal whole mounts or cross sections were prepared for immunohistochemical analysis as described previously (Ding et al., 2009; and Xu et al., 2011). […] The” for “The”
as §5

[8] = Serum T3 levels by mouse/rat T3 ELISA in anti-thyroid- or T3-treated mice; type: in vivo; conditions: for increase of serum T3 levels compared with untreated controls: around 24 hours after last injection; for concentration at 24 h: mouse, serum, sc, 0.1 μg/g body weight, T3 0.1 μg/g s.c. once each day 30 days from P1, around 24 hours after last injection
Procedure: as §3
Serum triiodothyronine (T3) levels were analyzed using a mouse/rat T3 ELISA kit (Calbiotech Inc., Spring Valley, Calif.) with a total T3 detection limit at 0.25 ng/ml. Briefly, 25 μl of serum samples and standards with different T3 concentrations were added into the assigned wells, the assays were performed by following the manufacturer's instructions, and the absorbance of each well was read at 450 nm (SPECTRAMAX® 190 Microplate Spectrophotometer, Molecular Devices LLC, Sunnyvale, Calif.). The standard curve was generated by using a three-parameter exponential non-linear regression in SIGMAPLOT® software (Systat Software, Inc., San Jose, Calif.), and the sample T3 concentration was then calculated according to the three-parameter exponential equation.

[9] = T3 0.1 μg/g s.c. daily 30 days from P1

Compound: O=C(C=C1CCN(c2ccc([N+](=O)[O-])cc2)CC1)NNC(=O)Nc1cccc(C(F)(F)F)c1 [1-850]
- cone death, in words [1]: reduced cone death
- cone density increase [1]: about 35%
- cone protection, in words [1]: protected cones
- inhibition of T3-induced M-opsin expression [2]: inhibited T3-induced M-opsin expression
- inhibition of the effects of T3 treatment on M-opsin and S-opsin expression [2]: inhibited

Compound: Cc1cc(OCC(=O)O)cc(C)c1Cc1cc(C#Cc2ccc([N+](=O)[O-])cc2)c(O)c(C(C)C)c1 [NH-3]
- cone death, in words [1]: reduced cone death
- cone density increase [1]: about 35%
- cone protection, in words [1]: protected cones
- inhibition of T3-induced M-opsin expression [2]: inhibited T3-induced M-opsin expression
- inhibition of the effects of T3 treatment on M-opsin and S-opsin expression [2]: inhibited

Compound: N[C@@H](Cc1cc(I)c(Oc2ccc(O)c(I)c2)c(I)c1)C(=O)O [T3, Triiodothyronine]
- reduction of average number of nuclei in the ONL vs untreated controls ([3]; T3 30 days): about 30%
- rod photoreceptor viability, in words ([3]; T3 30 days from P1): causes rod degeneration
- reduction of average number of nuclei in the ONL vs untreated controls ([4]; T3 30 days): about 30%
- rod photoreceptor viability, in words ([4]; T3 30 days from P1): causes rod degeneration
- cone viability [5]: cause cone death
- M-opsin expression ([2]; T3 treatment): increased M-opsin expression
- S-opsin expression ([2]; T3 treatment): decreased S-opsin expression
- reduction of density of cones labeled by CAR vs untreated controls [6, 9]: about 30%
- reduction of density of cones labeled by PNA vs untreated controls [6, 9]: about 30%
- reduction of density of cones labeled by cone opsin vs untreated controls [6, 9]: about 30%
- cone degeneration / cone density, in words ([6]; T3 30 days from P1): significantly increased; also recorded: significantly diminished cone density; also recorded: deteriorated cones
- cone density decrease ([6]; summary statement): about 40%
- reduction of CAR-labeled cones vs untreated [7, 9]: about 40%
- reduction of PNA-labeled cones vs untreated [7, 9]: about 30%
- M-opsin labeled-cones vs untreated controls ([7]; T3 30 days from P1): greatly reduced
- S-opsin labeled-cones vs untreated controls ([7]; T3 30 days from P1): greatly reduced
- cone degeneration / cone density, in words ([7]; T3 30 days from P1): significantly increased; also recorded: significantly reduced; also recorded: deteriorated cones
- cone density decrease ([7]; summary statement): about 40%
- increase of serum T3 levels compared with untreated controls ([8]; Cngb3−/− mice): about 8 fold
- increase of serum T3 levels compared with untreated controls ([8]; Gucy2e−/− mice): about 6 fold
- concentration at 24 h ([8]; Cngb3−/− mice): 3.85 ± 0.55 nM
- concentration at 24 h ([8]; Gucy2e−/− mice): 3.43 ± 0.48 nM
